In patent US9493432B2, “Cyclopentylbenzamide derivatives and their use for the treatment of psychotic and cognitive disorders” (Takeda Pharmaceutical Company Limited, priority 2013, dated 2016) one finds IC50 data, which are given here for 28 molecules.

Structures are written as SMILES. A value given as a limit tells only on which side of the number the result lay.

The target of one experiment is human orexin receptor 1 (Homo sapiens (Human), UniProt O43613). The experiment can be described thus: Orexin antagonist activity, intracellular calcium FLIPR assay (orexin receptor 1). The experiment is classed as cell-based. To be noted: RBL-2H3 cells stably expressing human orexin receptor 1; Ca2+ dye FLIPR; compound 15 minutes before orexin-A at approximately 80% maximal response; read-out: Human Orexin1R IC50. The protocol:
(§1) Orexin antagonist activity was determined by measuring changes in intracellular calcium levels using a Ca^2+ sensitive fluorescent dye. The changes in fluorescent signal were monitored by Fluorescent Imaging Plate Reader (FLIPR™) technology available from Molecular Devices, LLC, U.S.A. Orexin mediated increases in intracellular Ca^2+ concentration were readily detected upon activation with orexin-A. Twenty-four hours prior to the assay, RBL-2H3 cells stably expressing either human orexin receptor 1 or human orexin receptor 2 were seeded in cell culture medium in black, clear-bottom 384-well plates (commercially available from Corning Inc., U.S.A.) and grown overnight at 37° C., 5% CO2. On the day of the assay, cell culture media was removed and cells were loaded with Calcium 5 Dye (commercially sold by Molecular Devices, LLC, U.S.A.) for 1 hour at 37° C., 5% CO2. Test compounds (at 10 point half log concentration response curves from 10 μM) were added to cells for 15 minutes prior to the addition of orexin-A to all wells, to achieve a final concentration that produces approximately an 80% maximal response. The IC50 values were determined from ten point concentration response curves. Curves were generated using the average of two wells for each data point.
A general note: Calcium assays in cells follow changes in intracellular calcium, usually with a dye or a luminescent sensor.

For a further experiment, the target named is human orexin receptor 2 (Homo sapiens (Human), UniProt O43614). Kind of experiment: Orexin antagonist activity, intracellular calcium FLIPR assay (orexin receptor 2). The experiment is classed as cell-based. Conditions: RBL-2H3 cells stably expressing human orexin receptor 2; Ca2+ dye FLIPR; compound 15 minutes before orexin-A at approximately 80% maximal response; read-out: Human Orexin2R IC50. As for the experimental part: as §1
Sequence of human orexin receptor 2 (O43614 whole entry): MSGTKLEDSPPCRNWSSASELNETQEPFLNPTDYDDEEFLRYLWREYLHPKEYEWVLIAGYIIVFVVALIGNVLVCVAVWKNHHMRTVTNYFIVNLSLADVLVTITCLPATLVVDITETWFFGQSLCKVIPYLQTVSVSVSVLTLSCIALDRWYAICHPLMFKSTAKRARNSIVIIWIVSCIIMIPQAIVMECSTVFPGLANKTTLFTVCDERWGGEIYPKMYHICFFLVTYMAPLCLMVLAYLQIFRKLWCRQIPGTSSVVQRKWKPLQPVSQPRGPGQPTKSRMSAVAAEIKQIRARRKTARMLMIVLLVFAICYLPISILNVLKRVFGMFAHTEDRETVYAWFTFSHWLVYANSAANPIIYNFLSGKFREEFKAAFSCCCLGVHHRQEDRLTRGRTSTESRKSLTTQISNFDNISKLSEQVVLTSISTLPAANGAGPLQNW

Sequence of human orexin receptor 1 (O43613 whole entry): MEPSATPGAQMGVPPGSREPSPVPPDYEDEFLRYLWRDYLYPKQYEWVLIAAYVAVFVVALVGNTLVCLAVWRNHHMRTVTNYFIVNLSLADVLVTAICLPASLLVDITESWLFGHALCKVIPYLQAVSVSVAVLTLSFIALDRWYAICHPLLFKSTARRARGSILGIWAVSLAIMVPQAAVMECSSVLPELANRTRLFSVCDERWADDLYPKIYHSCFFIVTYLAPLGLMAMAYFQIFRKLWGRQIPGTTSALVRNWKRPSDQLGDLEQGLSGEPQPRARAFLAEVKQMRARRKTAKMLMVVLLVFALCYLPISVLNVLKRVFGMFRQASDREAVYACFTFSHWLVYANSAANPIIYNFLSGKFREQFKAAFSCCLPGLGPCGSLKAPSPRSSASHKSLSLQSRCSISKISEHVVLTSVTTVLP

For the molecule `O=C(N[C@H]1CCC[C@@H]1Nc1nc2ccc(F)cc2o1)c1ccccc1-n1nccn1` [Example 87, N-[(1S,2S)-2-[(6-Fluoro-1,3-benzoxazol-2-yl)amino]cyclopentyl]-2-(2H-1,2,3-triazol-2-yl)benzamide], the values for the IC50 on human orexin receptor 1 and on human orexin receptor 2 were 21 nM and more than 10 µM, respectively.

As to `COc1cccc(OC)c1C(=O)N[C@H]1CCC[C@H]1Nc1nc2ccccc2o1` [Example 7, N-[(1S,2R)-2-[(1,3-Benzoxazol-2-yl)amino]cyclopentyl]-2,6-dimethoxybenzamide], the IC50 (commonly the midpoint of a concentration-inhibition curve) on human orexin receptor 1 amounted to 26 nM; at human orexin receptor 2 it was 1.9 µM.

For `O=C(N[C@H]1CCC[C@@H]1Nc1nc2ccc(F)cc2s1)c1c(F)cccc1-n1nccn1` [Example 69, 2-Fluoro-N-[(1S,2S)-2-[(6-fluoro-1,3-benzothiazol-2-yl)amino]cyclopentyl]-6-(2H-1,2,3-triazol-2-yl)benzamide], the results for the IC50 on human orexin receptor 1 and on human orexin receptor 2 were 15 nM and 3.2 µM, respectively.

For `CN(C(=O)c1cc(F)ccc1-n1nccn1)[C@H]1CCC[C@@H]1Nc1nc2ccc(F)cc2s1` [Example 81, 5-Fluoro-N-[(1S,2S)-2-[(6-fluoro-1,3-benzothiazol-2-yl)amino]cyclopentyl]-N-methyl-2-(2H-1,2,3-triazol-2-yl)benzamide], the IC50 at human orexin receptor 1 was 1 nM; on human orexin receptor 2, 0.84 µM.

For the molecule `Cc1ccc(-n2nccn2)c(C(=O)NC2CCCC2Cc2cnc3ccccc3n2)c1` (centres unmarked) [Example 63, 5-Methyl-N-[2-(quinoxalin-2-ylmethyl)cyclopentyl]-2-(2H-1,2,3-triazol-2-yl)benzamide], the IC50 at human orexin receptor 1 is 48 nM; on human orexin receptor 2 it was 4.2 µM.

Consider `O=C(N[C@H]1CCC[C@@H]1Nc1nc2ccc(F)cc2s1)c1ccccc1-c1ncccn1` [Example 40, N-[(1S,2S)-2-[(6-Fluoro-1,3-benzothiazol-2-yl)amino]cyclopentyl]-2-(pyrimidin-2-yl)benzamide], for which the values for the IC50 on human orexin receptor 1 and on human orexin receptor 2 were 15 nM and 3.3 µM, respectively.

With `O=C(N[C@H]1CCC[C@@H]1Nc1nc2ccc(F)cc2s1)c1ccccc1F` [Example 48, 2-Fluoro-N-[(1S,2S)-2-[(6-fluoro-1,3-benzothiazol-2-yl)amino]cyclopentyl]-benzamide], the concentration for half-maximal inhibition (IC50) on human orexin receptor 1 is 160 nM; at human orexin receptor 2, 3.7 µM.

For the molecule `COc1cccc(OC)c1C(=O)N[C@H]1CCC[C@@H]1Nc1nc2ccc(F)cc2s1` [Example 3, N-[(1S,2S)-2-[(6-Fluoro-1,3-benzothiazol-2-yl)amino]cyclopentyl]-2,6-dimethoxybenzamide], the results for the IC50 on human orexin receptor 1 and at human orexin receptor 2 were 4.2 nM and 7.6 µM, respectively.

Turning to `CC1(Nc2nc3ccc(F)cc3s2)CCCC1NC(=O)c1ccccc1-n1nccn1` (centres unmarked) [Example 107, N-{2-[(6-Fluoro-1,3-benzothiazol-2-yl)amino]-2-methylcyclopentyl}-2-(2H-1,2,3-triazol-2-yl)benzamide], the IC50 at human orexin receptor 1 amounted to 7 nM; on human orexin receptor 2, 0.06 µM.

Take `COc1ccccc1C(=O)N[C@H]1CCC[C@@H]1Nc1nc2ccc(F)cc2s1` [Example 50, N-[(1S,2S)-2-[(6-Fluoro-1,3-benzothiazol-2-yl)amino]cyclopentyl]-2-methoxybenzamide]: the IC50 on human orexin receptor 1 came to 190 nM; on human orexin receptor 2, 3.4 µM.

Take `CC1(Nc2nc3ccc(Cl)cc3s2)CCCC1NC(=O)c1ccccc1-n1nccn1` (centres unmarked) [Example 108, N-{2-[(6-Chloro-1,3-benzothiazol-2-yl)amino]-2-methylcyclopentyl}-2-(2H-1,2,3-triazol-2-yl)benzamide]: the IC50 on human orexin receptor 1 was determined as 13 nM; on human orexin receptor 2, 0.186 µM.

For the molecule `O=C(N[C@H]1CCC[C@@H]1Nc1nc2ccc(F)cc2s1)c1ccccc1-n1ccnc1` [Example 43, N-[(1S,2S)-2-[(6-Fluoro-1,3-benzothiazol-2-yl)amino]cyclopentyl]-2-(1H-imidazol-1-yl)benzamide], the IC50 is 39 nM on human orexin receptor 1 and more than 10 µM at human orexin receptor 2.

With `CCOc1ccccc1C(=O)N[C@H]1CCC[C@@H]1Nc1nc2ccc(F)cc2s1` [Example 49, 2-Ethoxy-N-[(1S,2S)-2-[(6-fluoro-1,3-benzothiazol-2-yl)amino]cyclopentyl]-benzamide], the IC50 stood at 190 nM on human orexin receptor 1 and 1.4 µM on human orexin receptor 2.

Consider `COc1cccc(OC)c1C(=O)N[C@H]1CCC[C@@H]1Nc1nc2ccc(Cl)cc2s1` [Example 10, N-[(1S,2S)-2-[(6-Chloro-1,3-benzothiazol-2-yl)amino]cyclopentyl]-2,6-dimethoxybenzamide], for which the IC50 stood at 210 nM at human orexin receptor 1 and 7.2 µM at human orexin receptor 2.

On to `CCOc1cccc(OCC)c1C(=O)NC1CCCC1Cc1ccc2ccccc2n1` (centres unmarked) [Example 30, 2,6-Diethoxy-N-(2-(quinolin-2-ylmethyl)cyclopentyl)benzamide], for which the IC50 at human orexin receptor 1 was found to be 320 nM; at human orexin receptor 2, 0.37 µM.

Turning to `O=C(N[C@H]1CCCC1Nc1nc2ccc(F)cc2s1)c1ccccc1-n1nccn1` (stereo in doubt) [Example 75, N-[(1S,2R)-2-[(6-Fluoro-1,3-benzothiazol-2-yl)amino]cyclopentyl]-2-(2H-1,2,3-triazol-2-yl)benzamide], the IC50 is 5 nM at human orexin receptor 1 and 0.26 µM at human orexin receptor 2.

Take `COc1cccc(OC)c1C(=O)N[C@H]1CCC[C@H]1Nc1nc2ccc(Cl)cc2s1` [Example 15, N-[(1S,2R)-2-[(6-Chloro-1,3-benzothiazol-2-yl)amino]cyclopentyl]-2,6-dimethoxybenzamide]: the IC50 is 35 nM at human orexin receptor 1 and 0.16 µM at human orexin receptor 2.

As for `O=C(N[C@H]1CCC[C@@H]1Nc1nc2c(F)cccc2s1)c1ccccc1-n1nccn1` [Example 94, N-[(1S,2S)-2-[(4-Fluoro-1,3-benzothiazol-2-yl)amino]cyclopentyl]-2-(2H-1,2,3-triazol-2-yl)benzamide], the values for the IC50 at human orexin receptor 1 and at human orexin receptor 2 were 30 nM and more than 10 µM, respectively.

As for `COc1cccc(F)c1C(=O)N[C@H]1CCC[C@@H]1Nc1nc2ccc(F)cc2s1` [Example 46, 2-Fluoro-N-[(1S,2S)-2-[(6-fluoro-1,3-benzothiazol-2-yl)amino]cyclopentyl]-6-methoxybenzamide], the values for the IC50 on human orexin receptor 1 and on human orexin receptor 2 were 110 nM and 6.3 µM, respectively.

As to `Cc1ccc(-n2nccn2)c(C(=O)NC2CCCC2Cc2ccc3ccccc3n2)c1` (centres unmarked) [Example 27, 5-Methyl-N-[2-(quinolin-2-ylmethyl)cyclopentyl]-2-(2H-1,2,3-triazol-2-yl)benzamide], the results for the IC50 at human orexin receptor 1 and on human orexin receptor 2 were 52 nM and 8.5 µM, respectively.

As to `COc1cccc(OC)c1C(=O)N[C@H]1CCC[C@H]1Nc1cnc2ccccc2n1` [Example 1, 2,6-Dimethoxy-N-[(1S,2R)-2-[(quinoxalin-2-yl)amino]cyclopentyl]-benzamide], the IC50 at human orexin receptor 1 was found to be 0.84 nM; at human orexin receptor 2 it was 0.098 µM.

With `O=C(NC1CCC[C@@H]1Nc1nc2ccncc2s1)c1ccccc1-n1nccn1` (stereo in doubt) [Example 97, N-[(1S,2S)-2-({[1,3]Thiazolo[5,4-c]pyridin-2-yl}amino)cyclopentyl]-2-(2H-1,2,3-triazol-2-yl)benzamide], the IC50 was 780 nM at human orexin receptor 1 and more than 10 µM on human orexin receptor 2.

Turning to `O=C(N[C@H]1CCC[C@@H]1Nc1nc2c(Cl)cncc2s1)c1ccccc1-n1nccn1` [Example 96, N-[(1S,2S)-2-({7-Chloro-[1,3]thiazolo[5,4-c]pyridin-2-yl}amino)cyclopentyl]-2-(2H-1,2,3-triazol-2-yl)benzamide], the IC50 was 480 nM at human orexin receptor 1 and more than 10 µM at human orexin receptor 2.

Turning to `O=C(N[C@H]1CCC[C@@H]1Nc1nc2ccccc2s1)c1ccccc1-n1nccn1` [Example 90, N-[(1S,2S)-2-[(1,3-Benzothiazol-2-yl)amino]cyclopentyl]-2-(2H-1,2,3-triazol-2-yl)benzamide], the IC50 is 16 nM at human orexin receptor 1 and more than 10 µM on human orexin receptor 2.

For `Cc1ccc(-n2ccnn2)c(C(=O)N[C@H]2CCC[C@@H]2Nc2nc3ccc(F)cc3s2)c1` [Example 38, N-[(1S,2S)-2-[(6-Fluoro-1,3-benzothiazol-2-yl)amino]cyclopentyl]-5-methyl-2-(1H-1,2,3-triazol-1-yl)benzamide], the IC50 is 13 nM on human orexin receptor 1 and more than 10 µM on human orexin receptor 2.

Take `O=C(N[C@H]1CCC[C@@H]1Nc1nc2ccc(F)cc2s1)c1ccccc1-n1nccn1` [Example 59, N-[(1S,2S)-2-[(6-Fluoro-1,3-benzothiazol-2-yl)amino]cyclopentyl]-2-(2H-1,2,3-triazol-2-yl)benzamide]: the values for the IC50 on human orexin receptor 1 and on human orexin receptor 2 were 11 nM and 6.7 µM, respectively.

As for `O=C(N[C@H]1CCC[C@@H]1Nc1nc2cc(F)ccc2s1)c1ccccc1-n1nccn1` [Example 92, N-[(1S,2S)-2-[(5-Fluoro-1,3-benzothiazol-2-yl)amino]cyclopentyl]-2-(2H-1,2,3-triazol-2-yl)benzamide], the figures for the IC50 on human orexin receptor 1 and at human orexin receptor 2 were 14 nM and 8.6 µM, respectively.

For the molecule `COc1cccc(OC)c1C(=O)N[C@@H]1CCC[C@H]1Nc1nc2ccc(Cl)cc2s1` [Example 14, N-[(1R,2R)-2-[(6-Chloro-1,3-benzothiazol-2-yl)amino]cyclopentyl]-2,6-dimethoxybenzamide], the IC50 came to 1000 nM at human orexin receptor 1 and 0.68 µM at human orexin receptor 2.
